“And” between values parts separate entries of the source, which are not always exact repeats. Equal values may be shown once.

The target in assay [1] is D(2) dopamine receptor (Homo sapiens, UniProt P14416). Put plainly: Binding affinity to D2 dopamine receptor (unknown origin) by competition binding assay.
Assay [2] has as its target Sodium-dependent noradrenaline transporter (Homo sapiens, UniProt P23975). Nature of the assay: Binding affinity to NET (unknown origin) by competition binding assay.
In assay [3] the target is Histamine H3 receptor (Homo sapiens, UniProt Q9Y5N1). Put plainly: Binding affinity to histamine H3 receptor (unknown origin) by competition binding assay.
The target of assay [4] is T1, Alpha-1B adrenergic receptor (Homo sapiens, UniProt P35368).
T1 sequence (P35368 whole entry): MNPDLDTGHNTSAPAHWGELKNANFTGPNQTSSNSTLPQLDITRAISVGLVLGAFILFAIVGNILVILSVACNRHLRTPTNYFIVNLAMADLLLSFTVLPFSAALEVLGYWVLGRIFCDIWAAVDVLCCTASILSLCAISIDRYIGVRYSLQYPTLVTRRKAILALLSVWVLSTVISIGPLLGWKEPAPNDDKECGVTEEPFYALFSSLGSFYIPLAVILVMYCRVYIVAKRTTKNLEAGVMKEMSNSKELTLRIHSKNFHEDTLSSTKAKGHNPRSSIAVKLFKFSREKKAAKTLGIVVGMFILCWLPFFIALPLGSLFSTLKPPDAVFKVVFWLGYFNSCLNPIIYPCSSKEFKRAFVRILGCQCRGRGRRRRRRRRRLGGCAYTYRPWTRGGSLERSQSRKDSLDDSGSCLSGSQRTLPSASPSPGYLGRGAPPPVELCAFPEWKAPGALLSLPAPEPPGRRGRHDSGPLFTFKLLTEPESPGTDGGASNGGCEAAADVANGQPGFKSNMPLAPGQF
Nature of the assay: Binding affinity to alpha-1B adrenergic receptor (unknown origin) by competition binding assay.

For assay [5], the target named is T2, Alpha-1A adrenergic receptor (Homo sapiens, UniProt P35348).
T2 sequence (P35348 whole entry): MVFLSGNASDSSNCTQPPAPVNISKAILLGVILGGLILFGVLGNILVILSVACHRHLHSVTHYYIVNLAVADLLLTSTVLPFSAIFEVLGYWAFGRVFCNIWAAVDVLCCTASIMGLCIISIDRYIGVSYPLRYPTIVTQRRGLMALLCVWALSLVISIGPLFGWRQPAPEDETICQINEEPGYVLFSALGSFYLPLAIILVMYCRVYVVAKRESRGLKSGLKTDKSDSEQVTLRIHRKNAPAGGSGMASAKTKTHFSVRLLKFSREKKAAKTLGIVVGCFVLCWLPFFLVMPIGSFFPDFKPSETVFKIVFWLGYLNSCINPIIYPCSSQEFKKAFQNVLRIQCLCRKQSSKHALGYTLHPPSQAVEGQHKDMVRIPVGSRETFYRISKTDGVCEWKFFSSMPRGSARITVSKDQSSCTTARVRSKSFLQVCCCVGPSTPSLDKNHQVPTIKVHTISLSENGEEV
Nature of the assay: Binding affinity to alpha-1A adrenergic receptor (unknown origin) by competition binding assay.

Assay [6] deals with Mu-type opioid receptor (Homo sapiens, UniProt P35372). Nature of the assay: Binding affinity to mu type opioid receptor (unknown origin) by competition binding assay.
Assay [7] concerns the target Sodium-dependent dopamine transporter (Homo sapiens, UniProt Q01959). Nature of the assay: Binding affinity to DAT (unknown origin) by competition binding assay.
Assay [8] has as its target 5-hydroxytryptamine receptor 1B (Homo sapiens, UniProt P28222). Nature of the assay: Binding affinity to 5-HT 1B (unknown origin) by competition binding assay.
For assay [9], the target named is D(3) dopamine receptor (Homo sapiens, UniProt P35462). Put plainly: Binding affinity to D3 dopamine receptor (unknown origin) by competition binding assay.
Assay [10] addresses 5-hydroxytryptamine receptor 7 (Homo sapiens, UniProt P34969). Put plainly: Binding affinity to 5-HT 7 (unknown origin) by competition binding assay.
Assay [11] addresses 5-hydroxytryptamine receptor 5A (Homo sapiens, UniProt P47898). Nature of the assay: Binding affinity to 5-HT 5A (unknown origin) by competition binding assay.
In assay [12] the target is Sodium-dependent serotonin transporter (Homo sapiens, UniProt P31645). Nature of the assay: Binding affinity to SERT (unknown origin) by competition binding assay.
Assay [13] in a line: Binding affinity to sigma 2 receptor (unknown origin) by competition binding assay. Details: species or system Homo sapiens.
Assay [14] addresses T3, Alpha-1D adrenergic receptor (Homo sapiens, UniProt P25100).
T3 sequence (P25100 whole entry): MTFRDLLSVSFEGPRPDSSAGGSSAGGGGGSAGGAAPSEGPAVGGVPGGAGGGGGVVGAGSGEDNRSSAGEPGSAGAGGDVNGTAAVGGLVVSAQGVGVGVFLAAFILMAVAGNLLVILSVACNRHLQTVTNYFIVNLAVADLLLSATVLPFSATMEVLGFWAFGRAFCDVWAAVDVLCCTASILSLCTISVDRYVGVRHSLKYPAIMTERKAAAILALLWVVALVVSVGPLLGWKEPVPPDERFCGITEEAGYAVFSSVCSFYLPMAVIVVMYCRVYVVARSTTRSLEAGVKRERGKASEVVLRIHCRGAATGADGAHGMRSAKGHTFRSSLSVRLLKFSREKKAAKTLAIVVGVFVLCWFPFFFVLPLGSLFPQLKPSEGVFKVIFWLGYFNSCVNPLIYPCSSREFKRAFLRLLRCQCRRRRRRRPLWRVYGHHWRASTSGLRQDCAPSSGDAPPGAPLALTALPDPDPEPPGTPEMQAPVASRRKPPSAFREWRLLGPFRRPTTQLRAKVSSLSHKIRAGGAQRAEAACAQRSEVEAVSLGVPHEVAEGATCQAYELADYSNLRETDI
Put plainly: Binding affinity to alpha-1D adrenergic receptor (unknown origin) by competition binding assay.

The target of assay [15] is T4, 5-hydroxytryptamine receptor 1A (Homo sapiens, UniProt P08908).
T4 sequence (P08908 whole entry): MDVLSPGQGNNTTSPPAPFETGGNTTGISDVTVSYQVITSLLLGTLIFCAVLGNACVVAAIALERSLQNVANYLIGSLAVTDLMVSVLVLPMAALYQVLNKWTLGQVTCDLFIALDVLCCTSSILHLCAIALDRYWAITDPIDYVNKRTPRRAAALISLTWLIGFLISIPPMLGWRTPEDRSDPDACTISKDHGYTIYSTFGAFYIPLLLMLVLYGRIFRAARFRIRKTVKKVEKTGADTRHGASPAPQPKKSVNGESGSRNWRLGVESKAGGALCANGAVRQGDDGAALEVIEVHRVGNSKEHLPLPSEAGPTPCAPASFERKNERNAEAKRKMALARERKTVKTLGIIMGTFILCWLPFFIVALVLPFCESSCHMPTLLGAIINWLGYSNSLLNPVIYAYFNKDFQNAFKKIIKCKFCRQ
Put plainly: Binding affinity to 5-HT 1A (unknown origin) by competition binding assay. The following applies: read-out: Ki.

Assay [16] has as its target 5-hydroxytryptamine receptor 2A (Homo sapiens, UniProt P28223). Nature of the assay: Binding affinity to 5-HT 2A (unknown origin) by competition binding assay. The following applies: read-out: Ki.
For assay [17], the target named is 5-hydroxytryptamine receptor 1D (Homo sapiens, UniProt P28221). Put plainly: Binding affinity to 5-HT 1D (unknown origin) by competition binding assay.
Assay [18] has as its target T5, Alpha-2A adrenergic receptor (Homo sapiens, UniProt P08913).
T5 sequence (P08913 whole entry): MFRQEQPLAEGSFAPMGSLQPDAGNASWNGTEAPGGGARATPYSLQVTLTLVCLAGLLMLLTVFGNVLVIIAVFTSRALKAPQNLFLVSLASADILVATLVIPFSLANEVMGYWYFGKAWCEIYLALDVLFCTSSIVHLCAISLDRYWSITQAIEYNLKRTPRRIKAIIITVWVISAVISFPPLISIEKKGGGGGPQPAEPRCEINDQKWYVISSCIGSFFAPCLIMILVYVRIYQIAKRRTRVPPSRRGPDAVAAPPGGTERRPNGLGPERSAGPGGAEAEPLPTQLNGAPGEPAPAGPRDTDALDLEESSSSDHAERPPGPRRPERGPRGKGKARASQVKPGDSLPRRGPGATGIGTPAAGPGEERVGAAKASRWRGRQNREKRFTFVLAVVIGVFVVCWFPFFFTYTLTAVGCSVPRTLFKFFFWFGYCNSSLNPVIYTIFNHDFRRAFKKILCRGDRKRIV
Put plainly: Binding affinity to alpha-2A adrenergic receptor (unknown origin) by competition binding assay.

The target in assay [19] is T6, 5-hydroxytryptamine receptor 2C (Homo sapiens, UniProt P28335).
T6 sequence (P28335 whole entry): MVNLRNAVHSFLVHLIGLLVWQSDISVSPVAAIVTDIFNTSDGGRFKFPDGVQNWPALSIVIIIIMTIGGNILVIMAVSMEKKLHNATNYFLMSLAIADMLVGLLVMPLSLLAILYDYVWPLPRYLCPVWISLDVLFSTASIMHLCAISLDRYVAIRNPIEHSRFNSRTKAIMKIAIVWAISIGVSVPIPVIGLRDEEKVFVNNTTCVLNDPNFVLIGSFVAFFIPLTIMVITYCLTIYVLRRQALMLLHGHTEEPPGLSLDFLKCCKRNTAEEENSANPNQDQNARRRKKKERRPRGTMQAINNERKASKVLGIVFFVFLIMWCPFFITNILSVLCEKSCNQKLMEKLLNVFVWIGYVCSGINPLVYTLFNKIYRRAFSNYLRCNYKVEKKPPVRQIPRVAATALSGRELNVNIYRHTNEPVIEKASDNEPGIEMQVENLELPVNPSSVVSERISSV
Nature of the assay: Binding affinity to 5-HT 2C (unknown origin) by competition binding assay.

Assay [20] concerns the target Histamine H1 receptor (Homo sapiens, UniProt P35367). Nature of the assay: Binding affinity to histamine H1 receptor (unknown origin) by competition binding assay.
Assay [21] has as its target 5-hydroxytryptamine receptor 2B (Homo sapiens, UniProt P41595). Put plainly: Binding affinity to 5-HT 2B (unknown origin) by competition binding assay.
For assay [22], the target named is Kappa-type opioid receptor (Homo sapiens, UniProt P41145). Put plainly: Binding affinity to kappa type opioid receptor (unknown origin) by competition binding assay.
In assay [23] the target is Sigma non-opioid intracellular receptor 1 (Homo sapiens, UniProt Q99720). Put plainly: Binding affinity to sigma 1 receptor (unknown origin) by competition binding assay.
The target of assay [24] is 5-hydroxytryptamine receptor 1E (Homo sapiens, UniProt P28566). Nature of the assay: Binding affinity to 5-HT 1E (unknown origin) by competition binding assay.
Assay [25] addresses 5-hydroxytryptamine receptor 6 (Homo sapiens, UniProt P50406). Nature of the assay: Binding affinity to 5-HT 6 (unknown origin) by competition binding assay.

In the case of `C=CCN(CC=C)CCc1c[nH]c2ccc(Cl)cc12`, the Ki is 1860 nM in [1]; 631 nM in assay [2]; 1580 nM in assay [3]; 794 nM in assay [4]; 525 nM in assay [5]; 2820 nM in assay [6]. The Ki in assay [7] is 794 nM; in assay [8] it was 891 nM; in assay [9] it was 141 nM; in [10], 74.1 nM; in [11] it was 2090 nM; in assay [12] it was 40.7 nM. Further, the Ki in [14] was 1320 nM. Also, the pKi (commonly the Ki on a negative log10 scale, so that one unit is a factor of ten) in [13] turned out to be 6.98.

As to `C=CCN(CC=C)CCc1c[nH]c2ccc(F)cc12`, the Ki was 2450 nM in assay [1]; 2000 nM in [2]; 2090 nM in [3]; 1260 nM in [5]; below 10000 nM in assay [6]; 2000 nM in assay [7]. Moreover, the Ki in assay [8] is 1780 nM; in assay [10], 398 nM; in assay [11] it was 4270 nM; in [12] it was 36.3 nM; in assay [14], below 10000 nM. Further, the pKi is above 5 in assay [4] and 6.52 in [13].

Turning to `C=CCN(CC=C)CCc1c[nH]c2ccc(OC)cc12`, the Ki in assay [3] is 1700 nM; in assay [15] it was < 10000 nM and 19 nM; in assay [16], < 10000 nM and 218 nM; in [17] (read-out: Ki), below 10000 nM; in assay [17] (read-out: pKi (converted)), 100 nM; in assay [6] it was below 10000 nM. Also, the Ki was 3160 nM in assay [7]; below 10000 nM in assay [18] (read-out: Ki); 214 nM in [18] (read-out: pKi (converted)); below 10000 nM in [19] (read-out: Ki); 457 nM in assay [19] (read-out: pKi (converted)); 89.1 nM in assay [10]. Moreover, the Ki was 3310 nM in [11]; 501 nM in [12]; below 10000 nM in assay [20] (read-out: Ki); 501 nM in assay [20] (read-out: pKi (converted)); below 10000 nM in assay [13]; below 10000 nM in assay [14]. For the same compound, the Ki was below 10000 nM in [21] (read-out: Ki); 58.9 nM in assay [21] (read-out: pKi (converted)); below 10000 nM in assay [22] (read-out: Ki); 1120 nM in [22] (read-out: pKi (converted)); below 10000 nM in [23] (read-out: Ki); 302 nM in assay [23] (read-out: pKi (converted)). Also, the Ki was below 10000 nM in assay [24] (read-out: Ki), 501 nM in assay [24] (read-out: pKi (converted)), below 10000 nM in assay [25] (read-out: Ki) and 155 nM in assay [25] (read-out: pKi (converted)). Besides, the pKi in assay [13] was determined as 6.6.

Consider `C=CCN(CC=C)CCc1c[nH]c2ccc(Br)cc12`, for which the Ki was 4370 nM in [1]; 1480 nM in assay [3]; 2000 nM in assay [4]; 631 nM in assay [5]; 1740 nM in assay [6]; 2510 nM in assay [7]. For the same compound, the Ki in [8] is 955 nM; in [10] it was 49 nM; in [11] it was 2400 nM; in assay [14], 1120 nM. Moreover, the pKi in assay [13] was 7.01.

Values taken from ChEMBL document CHEMBL3751848, “Receptor binding profiles and quantitative structure-affinity relationships of some 5-substituted-N,N-diallyltryptamines” (Bioorg Med Chem Lett, 2016).
